From patent publication EP0745595A1, “3-(3-Aryloxyphenyl)-1-(substituted methyl)-s-triazine-2,4,6-oxo or thiotrione herbicidal agents” (American Cyanamid Company, priority 1995, dated 1996)

Assays:
Assay type in all cases: in vivo
[1] = tested on: IPOMOEA SPP.; test: Postemergence herbicidal evaluation, IPOSS (Morningglory spp.); settings: rated four to five weeks after treatment, averaged
Method in brief: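 In this greenhouse postemergence herbicide test on Ipomoea spp. (morningglory), compounds in 50/50 acetone/water with 0.5% TWEEN®20 were sprayed at 40 psi onto seedlings about two weeks old grown in jiffy flats. After four to five weeks, injury was scored on a 0-9 scale covering stand, vigor, malformation, size, chlorosis and overall appearance versus control, with repeat tests averaged.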

[2] = tested on: SCIRPUS JUNCOIDES; test: Preemergence evaluation in the presence of transplanted rice under flooded paddy conditions (Example 43), SCPJU (Bulrush, Japanese); parameters: key: visual rating on a 0-9 scale, compared with control; settings: applied three days after sowing, 25 to 30 days after treatment
Method: (§1) Results of herbicide evaluation are expressed on a rating scale (0-9). The scale is based upon a visual observation of plant stand, vigor, malformation, size, chlorosis and overall plant appearance as compared with a control.
(§2) In this example, Deluvian paddy soil (Toyokawa paddy soil) is placed in plastic pots, 100cm^2 x 9 cm in depth. Water is added to the level of the soil surface in the pot and the mixture is paddled 3 cm in depth.
(§3) Pots are then variously sown with monocotyledenous weed seeds and tubers at 0-2 cm in soil depth, as well as transplanted rice plants at the 2.5 leaf stage. The rice plants are transplanted at about 3 cm soil depth. Water is then added to all of the pots to 3 cm deep and kept at a depth of 3 cm for the duration of the test. Test compounds are applied in the manner described in Example 42 three days after transplanting the rice plants and sowing the weed seeds and tubers. The pots are then placed on greenhouse benches and cared for in the conventional manner. Tests are examined at 25 to 30 days after treatment and rated according to the rating system provided in Example 40. The compounds evaluated are reported by compound number given in Example 40.

[3] = tested on: IPOMOEA SPP.; test: Preemergence herbicidal evaluation, IPOSS (Morningglory spp.); settings: four to five weeks after treatment
Method in brief: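 This preemergence greenhouse test scored herbicidal effect on morningglory planted in pint cups, with seed mixed into potting soil and placed over about one inch of soil. After treatment the cups were watered and kept under conventional care. At four to five weeks, plant stand, vigor, malformation, size, chlorosis and overall appearance were compared with a control and rated 0-9.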

[4] = tested on: ECHINOCHLOA CRUS-GALLI; test: Preemergence evaluation in the presence of transplanted rice under flooded paddy conditions (Example 43), ECHCG (Barnyard Grass); parameters: key: visual rating on a 0-9 scale, compared with control; settings: applied three days after sowing, 25 to 30 days after treatment
Method: as §1, §2, §3

[5] = tested on: CYPERUS SEROTINUS, ROTTB.; test: Preemergence weed control under flooded paddy conditions, CYPSE (Flatsedge); settings: preemergence weeds, rated three to four weeks after treatment
Method in brief: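 Visual 0-9 rating against untreated control, covering stand, vigor, malformation, size and chlorosis, scored three to four weeks post-treatment in a greenhouse. Application was into 1.5-3 cm flood water over silt loam sown at 0.5 cm. The 50/50 v/v aqueous/acetone doses were about 0.5, 0.25, 0.125 and 0.063 kg/ha.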

[6] = tested on: […]; test: Preemergence evaluation in the presence of transplanted rice under flooded paddy conditions (Example 43), MOOVA (Monochoria); settings: applied three days after sowing, 25 to 30 days after treatment
Method: as §1, §2, §3

[7] = tested on: CHENOPODIUM ALBUM, L.; test: Preemergence herbicidal evaluation, CHEAL (Lambsquarters, Common); settings: four to five weeks after treatment
Method in brief: (§4)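 Seeds sown in potting soil cups, then sprayed preemergence with aqueous acetone compound solution at about 0.125 to 0.50 kg per hectare. Greenhouse-grown, rated 4–5 weeks after treatment on a 0–9 visual scale against control.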

[8] = tested on: CHENOPODIUM ALBUM, L.; test: Postemergence herbicidal evaluation, CHEAL (Lambsquarters, Common); settings: rated four to five weeks after treatment, averaged
Method in brief: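 Postemergence herbicidal activity on Chenopodium album was tested by spraying two-week-old seedlings grown in jiffy flats with compound in acetone/water (50/50) plus 0.5% TWEEN®20, using a 40 psi nozzle. Four to five weeks after treatment, stand, vigor, malformation, size, chlorosis and overall appearance were scored 0-9 relative to controls, with repeat tests averaged.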

[9] = tested on: CYPERUS DIFFORMIS; test: Preemergence evaluation in the presence of transplanted rice under flooded paddy conditions (Example 43), CYPDI (Flatsedge, smallflower); parameters: key: visual rating on a 0-9 scale, compared with control; settings: applied three days after sowing, 25 to 30 days after treatment
Method: as §1, §2, §3

[10] = tested on: GALIUM APARINE; test: Preemergence herbicidal evaluation, GALAP (Galium); settings: four to five weeks after treatment
Method in brief: as §4

[11] = tested on: ABUTILON THEOPHRASTI, MEDIC.; test: Preemergence herbicidal evaluation, ABUTH (Velvetleaf); settings: four to five weeks after treatment
Method in brief: as §4

[12] = tested on: ABUTILON THEOPHRASTI, MEDIC.; test: Postemergence herbicidal evaluation, ABUTH (Velvetleaf); settings: rated four to five weeks after treatment, averaged
Method in brief: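 This postemergence herbicide test used two-week-old velvetleaf seedlings grown in jiffy flats. Each compound was sprayed at 40 psi as a dispersion in 50/50 acetone/water with 0.5% TWEEN®20 surfactant. Plants then received routine greenhouse care. After four to five weeks, injury was scored visually on a 0-9 scale against a control, and replicate tests were averaged.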

[13] = tested on: SAGITTARIA PYGMAEA; test: Preemergence evaluation in the presence of transplanted rice under flooded paddy conditions (Example 43), SAGPY (Arrowhead (Pygmaea)); parameters: key: visual rating on a 0-9 scale, compared with control; settings: applied three days after sowing, 25 to 30 days after treatment
Method: as §1, §2, §3

[14] = tested on: ORYZA SATIVA, L. CV. KOSHIHIKARI; test: Post-transplant rice evaluation under flooded paddy conditions (Example 43), ORYSAK (Rice, Koshihikari); parameters: key: visual rating on a 0-9 scale, compared with control; settings: applied three days after transplanting rice, 25 to 30 days after treatment
Method: as §1, §2, §3

[15] = tested on: ORYZA SATIVA, L. TEBONNET; test: Rice tolerance to post-transplant applications under flooded paddy conditions, ORYSAT (Rice, Tebonnet); settings: post-transplant rice, rated three to four weeks after treatment;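 further: applied to flooded soil surface three days after transplanting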
Method in brief: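 Rated on a visual 0–9 scale against untreated plants 3–4 weeks after application, rice (cv. Tebonnet) tolerance was tested by applying compounds (approx. 0.5–0.063 kg/ha, acetone/water 50/50) to flooded soil three days post-transplant, water kept 1.5–3 cm deep.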

CCOC(=O)Cn1c(=O)[nH]c(=O)n(-c2cc(Oc3ccc(C(F)(F)F)cc3Cl)ccc2[N+](=O)[O-])c1=O [Compound 5, Ethyl 3-{5-[(2-chloro-α,α,α-trifluoro-p-tolyl)oxy]-2-nitrophenyl}tetrahydro-2,4,6-trioxo-s-triazine-1(2H)-acetate]
2.0: Herbicidal effect rating, ORYSAK ([14]; 0.125 kg/ha) | Herbicidal effect rating, ORYSAK ([14]; 0.250 kg/ha)
0.0: Herbicidal effect rating, ORYSAK ([14]; 0.032 kg/ha) | Herbicidal effect rating, ORYSAK ([14]; 0.063 kg/ha)
5.3: ORYSAT herbicidal rating (rice tolerance) ([15]; Rate 0.500 kg/ha)
4.3: ORYSAT herbicidal rating (rice tolerance) ([15]; Rate 0.125 kg/ha)
9.0: IPOSS, herbicide rating (0-9) ([1]; Rate 0.125 kg/ha) | IPOSS, herbicide rating (0-9) ([1]; Rate 0.250 kg/ha) | IPOSS, herbicide rating (0-9) ([1]; Rate 0.500 kg/ha) | Herbicidal effect rating, SCPJU ([2]; 0.125 kg/ha) | Herbicidal effect rating, SCPJU ([2]; 0.250 kg/ha) | IPOSS rating ([3]; Rate 0.125 kg/ha) | IPOSS rating ([3]; Rate 0.250 kg/ha) | IPOSS rating ([3]; Rate 0.500 kg/ha) | Herbicidal effect rating, ECHCG ([4]; 0.250 kg/ha) | CYPSE herbicidal rating ([5]; Rate 0.125 kg/ha) | CYPSE herbicidal rating ([5]; Rate 0.250 kg/ha) | CYPSE herbicidal rating ([5]; Rate 0.500 kg/ha) | Herbicidal effect rating, MOOVA ([6]; 0.032 kg/ha) | Herbicidal effect rating, MOOVA ([6]; 0.063 kg/ha) | Herbicidal effect rating, MOOVA ([6]; 0.125 kg/ha) | Herbicidal effect rating, MOOVA ([6]; 0.250 kg/ha) | CHEAL rating ([7]; Rate 0.125 kg/ha) | CHEAL rating ([7]; Rate 0.250 kg/ha) | CHEAL rating ([7]; Rate 0.500 kg/ha) | Herbicidal effect rating, CYPDI ([9]; 0.063 kg/ha) | Herbicidal effect rating, CYPDI ([9]; 0.125 kg/ha) | Herbicidal effect rating, CYPDI ([9]; 0.250 kg/ha) | GALAP rating ([10]; Rate 0.125 kg/ha) | GALAP rating ([10]; Rate 0.250 kg/ha) | GALAP rating ([10]; Rate 0.500 kg/ha) | ABUTH rating ([11]; Rate 0.125 kg/ha) | ABUTH rating ([11]; Rate 0.250 kg/ha) | ABUTH rating ([11]; Rate 0.500 kg/ha) | ABUTH, herbicide rating (0-9) ([12]; Rate 0.125 kg/ha) | ABUTH, herbicide rating (0-9) ([12]; Rate 0.250 kg/ha) | ABUTH, herbicide rating (0-9) ([12]; Rate 0.500 kg/ha) | Herbicidal effect rating, SAGPY ([13]; 0.125 kg/ha)
5.0: ORYSAT herbicidal rating (rice tolerance) ([15]; Rate 0.250 kg/ha)
1.0: Herbicidal effect rating, SAGPY ([13]; 0.032 kg/ha)
6.0: Herbicidal effect rating, SCPJU ([2]; 0.063 kg/ha)
8.0: Herbicidal effect rating, ECHCG ([4]; 0.032 kg/ha) | Herbicidal effect rating, ECHCG ([4]; 0.063 kg/ha) | Herbicidal effect rating, ECHCG ([4]; 0.125 kg/ha) | CHEAL, herbicide rating (0-9) ([8]; Rate 0.125 kg/ha) | CHEAL, herbicide rating (0-9) ([8]; Rate 0.250 kg/ha) | CHEAL, herbicide rating (0-9) ([8]; Rate 0.500 kg/ha) | Herbicidal effect rating, CYPDI ([9]; 0.032 kg/ha) | Herbicidal effect rating, SAGPY ([13]; 0.250 kg/ha)
3.0: Herbicidal effect rating, SAGPY ([13]; 0.063 kg/ha) | ORYSAT herbicidal rating (rice tolerance) ([15]; Rate 0.063 kg/ha)
4.0: Herbicidal effect rating, SCPJU ([2]; 0.032 kg/ha)
